Assay results published in US20260193227A1, “THERAPEUTIC COMPOUNDS AND METHODS” (UNIVERSITY OF IOWA RESEARCH FOUNDATION, priority 2022, published 2026).

Assays:
[1] = tested on: RAD52 OB mutant (K102A/K103A/K169A/R173A); assay: FRET-based inhibition of ssDNA binding, outer binding defective RAD52 mutant; design: species or system human; details: for fold lower IC50 (increased efficiency) against OB mutant compared to IB mutant: Z56: wild type and IB mutant within the fitting error
Description: (§1) Proteins: The 6×His-tagged human RAD52 proteins (wild type and mutants) and untagged human RPA were expressed and purified as previously described in (Hengel S R, eLife. 2016; 5; Grimme J M, et al., Nucleic Acids Res. 2010; 38(9):2917-30; and Henricksen L A, et al., The Journal of biological chemistry. 1994; 269(15):11121-32). RPA and RAD52 protein concentrations were determined by measuring absorbance at 280 nm using extinction coefficients of 88,830 M^−1 cm^−1 and 40,470 M^−1 cm^−1, respectively.
(§2) FRET-based DNA binding and inhibition assays: FRET-based that monitor the RAD52-ssDNA, RPA-ssDNA and RAD52-RPA-ssDNA binding were carried out as previously described (Hengel S R, eLife. 2016; 5; Grimme J M, et al., Nucleic Acids Res. 2010; 38(9):2917-30; and Grimme J M, Spies M. FRET-based assays to monitor DNA binding and annealing by Rad52 recombination mediator protein. Methods in molecular biology (Clifton, NJ). 2011; 745:463-83) using Cary Eclipse Spectrofluorimeter (Agilent) at 25° C., in 5 mm quartz cuvettes, and in buffer containing 30 mM Tris-Acetate (pH 7.5) and 1 mM DTT. Cy3 dye was excited at 530 nm and its emission was monitored at 565 nm. Emission of Cy5 acceptor fluorophore excited through the energy transfer from Cy3 donor is monitored at 660 nm simultaneously with emission of Cy3 dye. Both the excitation and the emission slits were set to 10 nm. All experiments were carried out using 1 nM (molecules) Cy3-dT30-Cy5 ssDNA. The optimal concentrations of the RAD52 (6 nM) and RPA (1 nM) proteins were selected by titrating the respective protein into 1 nM Cy3-dT30-Cy5 solution, and chosen based on the largest separation of the FRET values corresponding to the protein bound and free DNA.
The inhibition of the RAD52-ssDNA, RPA-ssDNA and RAD52-RPA-ssDNA complexes was evaluated by titrating each compound to the respective complex, measuring Cy3 and Cy5 fluorescence, and calculating FRET as previously described (Hengel, S. R., et al., eLife, 5).
Spectral properties of many compounds overlapped with the Cy3 and Cy5 fluorescence. To correct the calculated FRET values for the compound signal, the fluorogenic compounds were titrated into buffer and into solution of 1 nM Cy3-dT30-Cy5. For all tested compounds, the change in the signal in the Cy3 and Cy5 channels with and without Cy3/Cy5-labeled DNA present was the same. […] To account for the dye fluorescence, for each compound concentration, the apparent change in FRET of the ssDNA in the presence the compound was subtracted from the respective FRET signal of the RAD52-ssDNA, RPA-ssDNA or RAD52-ssDNA-RPA complex at the same inhibitor concentration. The IC50 values were calculated by fitting the corrected FRET data to the four-parameter dose response model using GraphPad Prism. […]

[2] = Solubility in cell culture medium; assay type: physicochemical; details: plasma or biological fluid
[3] = target: T1, RAD52 IB mutant (K152A/R153A) (Homo sapiens, UniProt P43351, K152A/R153A); assay: FRET-based inhibition of ssDNA binding, inner binding defective RAD52 mutant
T1 construct: 6xHis; made in house
T1 sequence (P43351 1-418 K152A/R153A): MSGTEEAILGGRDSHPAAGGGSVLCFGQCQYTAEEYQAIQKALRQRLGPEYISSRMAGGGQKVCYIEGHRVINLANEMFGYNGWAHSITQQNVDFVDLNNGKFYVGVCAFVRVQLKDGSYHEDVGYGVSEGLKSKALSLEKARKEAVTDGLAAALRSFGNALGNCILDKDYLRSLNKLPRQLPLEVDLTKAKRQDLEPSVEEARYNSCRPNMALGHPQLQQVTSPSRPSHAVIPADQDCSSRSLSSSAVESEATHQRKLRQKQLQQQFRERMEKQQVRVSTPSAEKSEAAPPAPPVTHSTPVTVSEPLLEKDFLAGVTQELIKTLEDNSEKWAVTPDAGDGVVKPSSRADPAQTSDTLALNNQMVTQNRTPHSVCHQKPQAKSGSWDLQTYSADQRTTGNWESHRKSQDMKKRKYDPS
Description: as §1
as §2, with “Both the excitation and the emission slits were set to 10 nm. All experiments were carried out using 1 nM (molecules) Cy3-dT30-Cy5 ssDNA. The optimal concentrations of the RAD52 (6 nM) and RPA (1 nM) proteins were selected by titrating the respective protein into 1 nM Cy3-dT30-Cy5 solution, and chosen based on the largest separation of the FRET values corresponding to the protein bound and free DNA.” left out
Spectral properties of many compounds overlapped with the Cy3 and Cy5 fluorescence. […]

SMILES	inhibition of ssDNA binding to OB mutant RAD52 [1]	fold lower IC50 (increased efficiency) against OB mutant compared to IB mutant [1]	solubility [2]	inhibition of ssDNA binding to IB mutant RAD52 [3]
O=C(Cn1cccc([N+](=O)[O-])c1=O)c1c[nH]c2ccccc12 [Example 1]	able to inhibit	6 fold	> 100 µM	able to inhibit
COc1ccccc1NS(=O)(=O)c1cc(C(=O)O)ccc1C [Example 8]	able to inhibit	6 fold	–	able to inhibit
